The results in this text go back to patent US11198692B2, “Dihydro-pyrrolo-pyridine derivatives” (Pfizer Inc., priority 2017, dated 2021).

The structures appear in SMILES notation. Where only a bound is given, the exact number is not on record here.

The target in this assay is T1, Human M4 receptors (Homo sapiens, UniProt P08173).
T1 construct: expressed in transfected cells
T1 sequence (P08173 1-479): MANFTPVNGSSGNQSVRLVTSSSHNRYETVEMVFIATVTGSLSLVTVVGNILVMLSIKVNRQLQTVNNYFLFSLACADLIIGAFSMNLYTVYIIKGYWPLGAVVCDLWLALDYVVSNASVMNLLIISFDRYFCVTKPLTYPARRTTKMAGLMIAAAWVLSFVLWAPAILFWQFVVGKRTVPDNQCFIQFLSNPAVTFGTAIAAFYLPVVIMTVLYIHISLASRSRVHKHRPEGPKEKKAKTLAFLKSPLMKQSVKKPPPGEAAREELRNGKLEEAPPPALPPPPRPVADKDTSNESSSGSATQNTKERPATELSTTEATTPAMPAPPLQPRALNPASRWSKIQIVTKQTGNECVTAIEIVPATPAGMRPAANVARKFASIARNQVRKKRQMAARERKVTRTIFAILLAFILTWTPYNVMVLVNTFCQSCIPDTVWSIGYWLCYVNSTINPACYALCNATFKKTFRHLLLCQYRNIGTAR
Kind of assay: M4 PAM cAMP assay (GloSensor). The following applies: HEK293 GloSensor cells expressing hM4, with EC20 acetylcholine and isoproterenol, geometric mean of 2-4 determinations unless footnoted (b: >=5, c: single); for EC50 Mean Asymptote Maximum (%) / Emax: Emax = maximum asymptote of fitted dose response curve; for Emax: read-out: EC50 Mean Asymptote Maximum (%). Format: cell-based. The procedure: The M4 cAMP assay was designed to determine the potency and efficacy of muscarinic positive allosteric modulators (PAMs). Human M4 receptors were stably expressed in Human embryonic kidney (HEK293) cells expressed with the Promega GloSensor™ cAMP technology.
HEK293 GloSensor cells expressing hM4 cells were cultured in growth media containing DMEM with 10% FBS, 1% Penicillin/Streptomycin, 500 μg/mL G418, 200 μg/mL Hygomycin B, and 1% Glutamax. When cells had grown to 80%-90% confluency, cells were harvested and seeded at a density of 25,000 cells/40 μL well, in a 384 white walled plates (Becton Dickinson 356661). Plates were incubated at 37 degrees C. and 5% CO2 for use after 24 hours.
Compound Preparation for Activator Screen:
Test compounds were initially prepared as 100% DMSO stock solutions, then transferred and serially diluted in 384-well compound plates (Matrix #4325). Each compound was tested at 10 concentrations in duplicate per experiment. Compound plates are spotted with 0.2 μL/well activator at 400 times the final assay concentration. Positive and negative controls for the compound alone activator response was 10 μM acetylcholine (Sigma # A2661) and DMSO, respectively. EC20 of acetylcholine was also used to define PAM activities.
Promega GloSensor™reagent (Promega # E1291) had previously been aliquotted. For each experiment, a stock solution of GloSensor™ was thawed out and equilibration medium was prepared with 88% CO2-independent media (Invitrogen #18045088), 10% fetal bovine serum and 2% GloSensor™ cAMP Reagent stock solution. Stock solution was mixed. Culture media in cell plates was discarded, then replaced with 40 μL/well pre-warmed equilibration media, then incubated in the dark at room temperature for 2 hours. During the incubation, stimulation media containing agonist and EC20 acetylcholine was prepared. CO2-independent media containing 50 […] Isoproterenol representing an EC80 of b-adrenergic receptor activity (Sigma #16504, 400 times final concentration) and EC20 acetylcholine in 1.25% DMSO was added to all columns of the compound plate, with the exception of column 12 to allow for EC0 control. […] Compounds are now 5 times the final assay concentration. The plate was mixed using a plate agitator. At the end of the 2 hour GloSensor™ incubation, add 10 μL of the CO2-independent media containing agonist, EC20 acetylcholine and isoproterenol to the cell plate. Cell plate was then incubated for 10 minutes at room temperature, and then read using an EnVision plate reader (Perkin Elmer).
Data was exported from the EnVision plate reader. The percent effect for each well was determined using the mean values for the positive and negative controls on each plate for each read, specifically 100*(compound−negative control)/(positive control−negative control). Dose response curves were fitted to the compound percent effect data using a 4-parameter logistic fit model. Data was reported as EC50 and Emax, with the Emax as the maximum asymptote of the fitted dose response curve.
Background: Changes in cAMP serve as a functional read-out for many G protein-coupled receptors.

By EC50 is commonly meant the concentration that produces a half-maximal response. Low readings indicate an effect from little substance, high ones a need for much substance.

For `CNc1nc(C)c(C)c2c1CN(C(=O)CC1CN(c3ccnc(C(F)(F)F)c3)C1)C2C` (single isomer, unassigned) [Example 44, 2-{1-[2-(trifluoromethyl)pyridin-4-yl]azetidin-3-yl}-1-[1,6,7-trimethyl-4-(methylamino)-1,3-dihydro-2H-pyrrolo[3,4-c]pyridin-2-yl]ethanone], the “EC50 Mean Asymptote Maximum (%)” value was 107^c % and it took 1.8 nM to reach a half-maximal effect (EC50).

The compound `CNc1nc(C)c(C)c2c1CN(C(=O)C[C@@H]1C[C@H]1c1ccc(C)nc1)C2` (single isomer, unassigned) [Example 46, 1-[6,7-dimethyl-4-(methylamino)-1,3-dihydro-2H-pyrrolo[3,4-c]pyridin-2-yl]-2-[trans-2-(6-methylpyridin-3-yl)cyclopropyl]ethanone] returned an EC50 of more than 10000 nM.

With `CNc1nc(C)c(C)c2c1CN(C(=O)C[C@@H]1C[C@H]1c1ccc(C)nc1)C2` (single isomer, unassigned) [Example 47, 1-[6,7-dimethyl-4-(methylamino)-1,3-dihydro-2H-pyrrolo[3,4-c]pyridin-2-yl]-2-[trans-2-(6-methylpyridin-3-yl)cyclopropyl]ethanone], the Emax was determined as 115% and the EC50 turned out to be 2.05 nM.

In the case of `CNc1nc(C)c(C)c2c1CN(C(=O)CC1CN(c3ccnc(OC(F)F)c3)C1)C2C` (single isomer, unassigned) [Example 49, 2-{1-[2-(difluoromethoxy)pyridin-4-yl]azetidin-3-yl}-1-[1,6,7-trimethyl-4-(methylamino)-1,3-dihydro-2H-pyrrolo[3,4-c]pyridin-2-yl]ethanone], the “EC50 Mean Asymptote Maximum (%)” value is recorded as 140^c % and the EC50 was 754 nM.

For the compound `CNc1nc(C)c(C)c2c1CN(C(=O)CC1CN(c3ccnc(OC(F)F)c3)C1)C2C` (single isomer, unassigned) [Example 50, 2-{1-[2-(difluoromethoxy)pyridin-4-yl]azetidin-3-yl}-1-[1,6,7-trimethyl-4-(methylamino)-1,3-dihydro-2H-pyrrolo[3,4-c]pyridin-2-yl]ethanone], the “EC50 Mean Asymptote Maximum (%)” value was 104^c % and it took 9.88 nM to reach a half-maximal effect (EC50).

In the case of `CNc1nc(C)c(C)c2c1CN(C(=O)CC1Cc3ccc(F)cc3C1)C2` (single isomer, unassigned) [Example 57, 1-[6,7-dimethyl-4-(methylamino)-1,3-dihydro-2H-pyrrolo[3,4-c]pyridin-2-yl]-2-(5-fluoro-2,3-dihydro-1H-inden-2-yl)ethanone], the Emax was determined as 97% and the EC50 was determined as 30.9 nM.

On to `Cc1c2c(c(=O)n(C)c1C)CN(C(=O)CC1CN(c3cccnc3)C1)C2` [Example 1, 5,6,7-Trimethyl-2-{[1-(pyridin-3-yl)azetidin-3-yl]acetyl}-1,2,3,5-tetrahydro-4H-pyrrolo[3,4-c]pyridin-4-one], for which the Emax is 90.9% and the EC50 came to 8.62 nM.

As to `CNc1nc(C)c(C)c2c1CN(C(=O)CC1CN(c3ncns3)C1)C2` [Example 2, 1-[6,7-Dimethyl-4-(methylamino)-1,3-dihydro-2H-pyrrolo[3,4-c]pyridin-2-yl]-2-[1-(1,2,4-thiadiazol-5-yl)azetidin-3-yl]ethanone], the Emax was 96.1% and it took 4.33 nM to reach a half-maximal effect (EC50).

With `CNc1nc(C)c(C)c2c1CN(C(=O)CC1CN(c3ccnc(OC(F)F)c3)C1)C2` [Example 3, 2-{1-[2-(Difluoromethoxy)pyridin-4-yl]azetidin-3-yl}-1-[6,7-dimethyl-4-(methylamino)-1,3-dihydro-2H-pyrrolo[3,4-c]pyridin-2-yl]ethanone], the Emax was 106% and the EC50 worked out at 2.91 nM.

Regarding `CNc1nc(C)c(C)c2c1CN(C(=O)CC1CN(c3cccnc3)C1)C2` [Example 4, 1-[6,7-Dimethyl-4-(methylamino)-1,3-dihydro-2H-pyrrolo[3,4-c]pyridin-2-yl]-2-[1-(pyridin-3-yl)azetidin-3-yl]ethanone], the Emax was found to be 95.8% and the EC50 is 1.76 nM.

With `CNc1nc(C)c(C)c2c1CN(C(=O)OC1CN(c3cccnc3)C1)C2` [Example 5, 1-(Pyridin-3-yl)azetidin-3-yl 6,7-dimethyl-4-(methylamino)-1,3-dihydro-2H-pyrrolo[3,4-c]pyridine-2-carboxylate], the Emax stood at 96.8% and the half-maximal effective concentration (EC50) is 1.22 nM.

Turning to `CNc1nc(C)c(C)c2c1CN(C(=O)OC1Cc3cccnc3C1)C2` (stereo not shown) [Example 6, 6,7-Dihydro-5H-cyclopenta[b]pyridin-6-yl 6,7-dimethyl-4-(methylamino)-1,3-dihydro-2H-pyrrolo[3,4-c]pyridine-2-carboxylate], the Emax worked out at 92% and the response was half-maximal at 50.6 nM (EC50).

In the case of `Cc1nc(C)c2c(c1C)CN(C(=O)CC1CN(c3cccnc3)C1)C2` [Example 12, 2-[1-(Pyridin-3-yl)azetidin-3-yl]-1-(4,6,7-trimethyl-1,3-dihydro-2H-pyrrolo[3,4-c]pyridin-2-yl)ethanone], the Emax came to 89.3% and the EC50 was determined as 19.9 nM.

Consider `Cc1nc(-c2cnn(C)c2)c2c(c1C)CN(C(=O)CC1CN(c3cccnc3)C1)C2` [Example 13, 1-[6,7-dimethyl-4-(1-methyl-1H-pyrazol-4-yl)-1,3-dihydro-2H-pyrrolo[3,4-c]pyridin-2-yl]-2-[1-(pyridin-3-yl)azetidin-3-yl]ethanone], for which the Emax came out at 87.5% and the EC50 amounted to 20.6 nM.

Regarding `Cc1nc(CN(C)C)c2c(c1C)CN(C(=O)CC1CN(c3cccnc3)C1)C2` [Example 14, 1-{4-[(dimethylamino)methyl]-6,7-dimethyl-1,3-dihydro-2H-pyrrolo[3,4-c]pyridin-2-yl}-2-[1-(pyridin-3-yl)azetidin-3-yl]ethanone], the Emax was 99.4% and the EC50 turned out to be 18.5 nM.

For the compound `Cc1nc(N(C)C)c2c(c1C)CN(C(=O)CC1CN(c3cccnc3)C1)C2` [Example 17, 1-[4-(dimethylamino)-6,7-dimethyl-1,3-dihydro-2H-pyrrolo[3,4-c]pyridin-2-yl]-2-[1-(pyridin-3-yl)azetidin-3-yl]ethanone], the Emax amounted to 102% and a half-maximal effect (EC50) was put at 17.9 nM.

Turning to `Cc1nc(C(F)F)c2c(c1C)CN(C(=O)CC1CN(c3cccnc3)C1)C2` [Example 18, 1-[4-(difluoromethyl)-6,7-dimethyl-1,3-dihydro-2H-pyrrolo[3,4-c]pyridin-2-yl]-2-[1-(pyridin-3-yl)azetidin-3-yl]ethanone], the Emax was found to be 91.7% and the EC50 came out at 23.6 nM.

In the case of `CNc1nc(C)c(C)c2c1CN(C(=O)CC1CN(c3cncnc3)C1)C2` [Example 19, 1-[6,7-dimethyl-4-(methylamino)-1,3-dihydro-2H-pyrrolo[3,4-c]pyridin-2-yl]-2-[1-(pyrimidin-5-yl)azetidin-3-yl]ethanone], the Emax was found to be 92.3% and it took 1.23 nM to reach a half-maximal effect (EC50).

On to `Cc1nc(N(C)C)c2c(c1C)CN(C(=O)CC1CN(c3cncnc3)C1)C2` [Example 20, 1-[4-(dimethylamino)-6,7-dimethyl-1,3-dihydro-2H-pyrrolo[3,4-c]pyridin-2-yl]-2-[1-(pyrimidin-5-yl)azetidin-3-yl]ethanone], for which the Emax stood at 95.1% and the midpoint of the response, the EC50, lay at 30.4 nM.
